US20170130196A1, “METHOD FOR CULTURING AND PATTERNING CELLS” (President and Fellows of Harvard College, priority 2015, published 2017)

System: GFP-expressing A549 human lung cancer cells
Experiment: Response of cells-in-string to toxins/drugs (crossed drug-laden string, confocal imaging)
Assay type: cell-based
Description: Scale bar represents 150 μm.
Cells in string were evaluated for the effect of a toxic drug on cancer cells. Green fluorescent protein (GFP) expressing A549 human lung cancer cells were grown in cotton string in Matrigel for two days. […] Doxorubicin was selected due to its potency in cancer treatment. These two strings were then crossed and sandwiched between two layers of filter paper that were impregnated with Matrigel. This assembly was cultured for two days and the cellular patterns that were transferred to the paper were imaged. […] A second experiment included the doxorubicin-laden string (FIG. 7B).

For `COc1cccc2c1C(=O)c1c(O)c3c(c(O)c1C2=O)C[C@@](O)(C(=O)CO)C[C@@H]3O[C@H]1C[C@H](N)[C@H](O)[C@H](C)O1` [Doxorubicin], which “cell death of GFP-A549 cells where exposed to drug-laden top string” value (1 μM Doxorubicin embedded in top string, cells grown in silk string for two days, top string removed following 24 h culture (FIG. 7B)) is on record?
Its value is “died in the area where they were exposed to the top string”.

And the “cell death of GFP-A549 cells where contacted by drug-laden top string” value (1 mM Doxorubicin encapsulated in string, cells in cotton string in Matrigel, crossed, sandwiched between Matrigel-impregnated filter paper, cultured two days)?
Its value is “died on the region where they contacted the top string containing doxorubicin”.
